In the assay the target is human cannabinoid CB2 receptor (Homo sapiens, UniProt P34972). The assay can be described thus: Cannabinoid CB2 receptor agonist activity (yeast reporter assay, FDGlu fluorescence). The assay is classed as cell-based. As to conditions: for Emax: read-out: efficacy value (Emax relative to HU210) at the cloned human cannabinoid CB2 receptor. The method, boiled down: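 S. cerevisiae MMY23 expressing human CB2 with a Gpa1/Gαi3 chimeric G-protein, grown 24 h at 30 °C with agonist (1% DMSO) in selective media containing 10 mM 3-aminotriazole and FDGlu, pH 7.0. Fluorescein fluorescence (485/535 nm) fitted by four-parameter curve; Emax and EMR relative to HU210.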
human cannabinoid CB2 receptor, sequence (P34972 whole entry): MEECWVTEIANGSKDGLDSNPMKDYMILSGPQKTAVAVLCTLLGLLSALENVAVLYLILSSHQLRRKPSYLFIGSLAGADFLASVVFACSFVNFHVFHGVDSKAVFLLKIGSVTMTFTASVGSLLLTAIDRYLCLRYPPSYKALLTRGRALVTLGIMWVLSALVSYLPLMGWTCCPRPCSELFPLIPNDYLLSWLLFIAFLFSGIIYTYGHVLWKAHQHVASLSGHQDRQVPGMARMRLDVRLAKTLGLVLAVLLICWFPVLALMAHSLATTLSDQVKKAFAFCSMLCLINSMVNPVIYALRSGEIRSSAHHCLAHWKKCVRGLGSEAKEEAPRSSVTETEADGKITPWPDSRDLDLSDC

Where [1] appears, read: EC50 value at the cloned human cannabinoid CB2 receptor.

Counter-ions that a name gives are not always drawn. Like-named read-outs stand apart in the source and are kept apart here.

By EC50 is commonly meant the midpoint of the concentration-response curve. Usually Emax stands for the maximal effect, on the per cent scale that the assay sets. In the case of `N#Cc1ccc(Nc2ncc(C(=O)NCC3CCCC3)c(C(F)(F)F)n2)cc1Cl` [Example 219, 2-(4-Cyano-3-chloro-phenylamino)-4-trifluoromethyl-pyrimidine-5-carboxylic acid cyclopentylmethyl-amide], the Emax was over 50%. Besides, the EC50 under setting [1] is 20 to 300 nM.

Regarding `COc1cccc(Nc2ncc(C(=O)NCC3CCCC3)c(C(F)(F)F)n2)c1` [Example 46, 2-(3-Methoxyphenylamino)-4-trifluoromethylpyrimidine-5-carboxylic acid cyclopentylmethyl-amide], the Emax was over 50%. Moreover, the EC50 under setting [1] was in the range of 20 to 300 nM.

As to `O=C(NC1CCC1)c1cnc(Nc2cccc(Cl)c2Cl)nc1C(F)(F)F` [Example 48, 2-(2,3-Dichlorophenylamino)-4-trifluoromethylpyrimidine-5-carboxylic acid cyclobutylamide], the Emax was over 50%. In addition, the EC50 under setting [1] lay in the range of 20 to 300 nM.

As to `O=C(NCC1CCCC1)c1cnc(Nc2cccc(Cl)c2F)nc1C(F)(F)F` [Example 248, 2-(3-Chloro-2-fluoro-phenylamino)-4-trifluoromethyl-pyrimidine-5-carboxylic acid cyclopentylmethyl-amide], the Emax was over 50%. This compound also showed an EC50 under setting [1] of 20 to 300 nM.

`N#Cc1ccc(CNC(=O)c2cnc(Nc3cccc(F)c3)nc2C(F)(F)F)cc1` [Example 306, 2-(3-Fluoro-phenylamino)-4-trifluoromethyl-pyrimidine-5-carboxylic acid N-(4-cyano-benzyl)amide]: the Emax was over 50%. The EC50 under setting [1] was in the range of 300 to 1000 nM.

With `O=C(NCC1CCCCC1)c1cnc(Nc2cc(F)cc(F)c2)nc1C(F)(F)F` [Example 169, 2-(3,5-Difluorophenylamino)-4-trifluoromethyl-pyrimidin-5-carboxylic acid cyclohexylmethyl-amide], the Emax was over 50%. For the same compound, under setting [1], the EC50 is 20 to 300 nM.

As for `CN(Cc1ccccc1)C(=O)c1cnc(Nc2ccc(C(C)(C)C)cc2)nc1C(F)(F)F` [2-(4-tert-butyl-phenylamino)-4-trifluoromethyl-pyrimidine-5-carboxylic acid benzyl-methyl-amide], the “activity in the CB2 assay described herein” value is “inactive”.

The compound `O=C(NCc1ccc(F)cc1)c1cnc(Nc2cc(F)cc(F)c2)nc1C(F)(F)F` [Example 350, 2-(3,5-Difluoro-phenylamino)-4-trifluoromethyl-pyrimidine-5-carboxylic acid 4-fluoro-benzylamide] came in with an EC50 under setting [1] of 20 to 300 nM.

On to `CC(C)c1cc(Nc2cccc(Cl)c2)ncc1C(=O)NCC1CCS(=O)(=O)C1` (stereo not shown) [Example 681, 6-(3-Chloro-phenylamino)-N-(1,1-dioxo-tetrahydro-1l^6-thiophen-3-ylmethyl)-4-isopropyl-nicotinamide], for which the maximum response (Emax) is over 50%.

Under setting [1], `O=C(NCc1ccncc1)c1cnc(Nc2cccc(Cl)c2Cl)nc1C(F)(F)F` [Example 281, 2-(2,3-Dichlorophenylamino)-4-trifluoromethylpyrimidine-5-carboxylic acid (pyridin-4-ylmethyl)amide] registered an EC50 of 20 to 300 nM.

With `O=C(NCC1CCC1)c1cnc(Nc2ccc(C(F)(F)F)c(F)c2)nc1C(F)(F)F` [Example 196, 2-(3-Fluoro-4-trifluoromethylphenylamino)-4-trifluoromethyl-pyrimidine-5-carboxylic acid cyclobutylmethyl-amide], the Emax was over 50%. This compound also displayed an EC50 under setting [1] of 20 to 300 nM.

Consider `O=C(NCC1CCCC1)c1cnc(Nc2ccc(Cl)cc2Cl)nc1C(F)(F)F` [Example 41, 2-(2,4-Dichlorophenylamino)-4-trifluoromethylpyrimidine-5-carboxylic acid cyclopentylmethyl-amide], for which the Emax was over 50%. Under setting [1], this compound displayed an EC50 of 20 to 300 nM.

In the case of `O=C(NCC1CCCC1)c1cnc(Nc2cccc(Br)c2)nc1C(F)(F)F` [Example 39, 2-(3-Bromophenylamino)-4-trifluoromethylpyrimidine-5-carboxylic acid cyclopentylmethyl-amide], the Emax is over 50%. Moreover, under setting [1], the EC50 was in the range of 20 to 300 nM.

With `O=C(NCC1CCC1)c1cnc(Nc2cccc(Br)c2)nc1C(F)(F)F` [Example 199, 2-(3-Bromophenylamino)-4-trifluoromethyl-pyrimidine-5-carboxylic acid cyclobutylmethyl-amide], the Emax was over 50%. Under setting [1], this compound registered an EC50 of 20 to 300 nM.

Turning to `O=C(NCC1CCC1)c1cnc(Nc2ccc(Br)cc2C(F)(F)F)nc1C(F)(F)F` [Example 105, 2-(2-Trifluoromethyl-4-bromophenylamino)-4-trifluoromethyl-pyrimidine-5-carboxylic acid cyclobutylmethyl-amide], the Emax is over 50%. The concentration for a half-maximal effect (EC50) under setting [1] was 300 to 1000 nM.

As for `O=C(c1cnc(Nc2ccccc2)nc1C(F)(F)F)N1CCOCC1` [Example 25, 1-Morpholin-4-yl-1-(2-phenylamino-4-trifluoromethyl-pyrimidin-5-yl)-methanone], the Emax was over 50%. In addition, the EC50 under setting [1] lay within 300 to 1000 nM.

For `O=C(NCC1CCCCC1)c1cnc(Nc2ccc(F)cc2Cl)nc1C(F)(F)F` [Example 222, 2-(2-Chloro-4-fluoro-phenylamino)-4-trifluoromethyl-pyrimidine-5-carboxylic acid cyclohexylmethyl-amide], the Emax was over 50%. Moreover, the EC50 under setting [1] was in the range of 20 to 300 nM.

For `COc1cccc(Nc2ncc(C(=O)N(C)Cc3ccccc3)c(C(F)(F)F)n2)c1` [Example 297, 2-(3-Methoxy-phenylamino)-4-trifluoromethyl-pyrimidine-5-carboxylic acid N-benzyl-N-methyl-amide], the Emax is over 50%. The concentration giving a half-maximal response (EC50) under setting [1] was in the range of 300 to 1000 nM.

`CN(Cc1ccccc1)C(=O)c1cnc(Nc2c(Cl)cccc2Cl)nc1C(F)(F)F` [Example 275, 2-(2,6-Dichlorophenylamino)-4-trifluoromethylpyrimidine-5-carboxylic acid N-benzyl-N-methylamide] showed an EC50 under setting [1] of 20 to 300 nM.

Consider `CS(=O)(=O)N1CCN(C(=O)c2cnc(Nc3cccc(Cl)c3)nc2C(F)(F)F)CC1` [Example 79, 1-[2-(3-chlorophenylamino)-4-trifluoromethyl-pyrimidin-5-yl]-1-(4-methanesulfonyl-piperazin-1-yl)-methanone], for which the maximal effect (Emax) was over 50%. In addition, under setting [1], the EC50 fell in the range of 300 to 1000 nM.

For `Cc1cc(CNC(=O)c2cnc(Nc3cccc(Cl)c3)nc2C(F)(F)F)ccn1` [Example 293, 2-(3-Chloro-phenylamino)-4-trifluoromethyl-pyrimidine-5-carboxylic acid (2-methyl-pyridin-4-ylmethyl)-amide hydrochloride], under setting [1], the half-maximal effective concentration (EC50) was 20 to 300 nM.

For `CN(CC1CCCCC1)C(=O)c1cnc(Nc2cccc(Cl)c2)nc1C(F)(F)F` [Example 189, 2-(3-Chlorophenylamino)-4-trifluoromethyl-pyrimidine-5-carboxylic acid cyclohexylmethyl-methyl-amide], the Emax was over 50%. This compound also gave an EC50 under setting [1] of 20 to 300 nM.

Turning to `Cc1cc(Cl)cc(C)c1Nc1ncc(C(=O)NCC2CCCCC2)c(C(F)(F)F)n1` [Example 95, 2-(4-Chloro-2,6-dimethyl-phenylamino)-4-trifluoromethyl-pyrimidine-5-carboxylic acid cyclohexylmethyl-amide], the Emax is over 50%. The compound further returned a 50% effective concentration (EC50) under setting [1] of 300 to 1000 nM.

With `COc1ccc(CNC(=O)c2cnc(Nc3cccc(Cl)c3)nc2C(F)(F)F)cc1` [Example 269, 2-(3-Chlorophenylamino)-4-trifluoromethylpyrimidine-5-carboxylic acid 4-methoxybenzyl-amide], the maximum response (Emax) was over 50%. This compound also gave an EC50 under setting [1] of 20 to 300 nM.

As to `O=C(NC1CCC1)c1cnc(Nc2cccc(F)c2)nc1C(F)(F)F` [Example 29, 2-(3-Fluoro-phenylamino)-4-trifluoromethyl-pyrimidine-5-carboxylic acid cyclobutylamide], the Emax was over 50%. The EC50 under setting [1] was 300 to 1000 nM.

Consider `O=C(NC[C@H]1CCCO1)c1cnc(Nc2cccc(F)c2)nc1C(F)(F)F` [Example 73, 2-(3-Fluoro-phenylamino)-4-trifluoromethyl-pyrimidine-5-carboxylic acid [(R)-1-(tetrahydro-furan-2-yl)methyl]-amide], for which the Emax is over 50%.

Consider `O=C(NCC1CCCC1)c1cnc(Nc2cccc(F)c2)nc1C(F)(F)F` [Example 38, 2-(3-Fluorophenylamino)-4-trifluoromethylpyrimidine-5-carboxylic acid cyclopentylmethyl-amide], for which the Emax was over 50%. Under setting [1], this compound registered an EC50 of 20 to 300 nM.

Regarding `O=C(NC1CCCC1)c1cnc(Nc2cc(Cl)cc(Cl)c2)nc1C(F)(F)F` [Example 75, 3,5-Dichlorophenylamino-4-trifluoromethyl-pyrimidine-5-carboxylic acid cyclopentylamide], the Emax is over 50%. Also, under setting [1], the EC50 lay in the range of 300 to 1000 nM.

`O=C(NCc1ccncc1)c1cnc(Nc2cc(Cl)cc(Cl)c2)nc1C(F)(F)F` [Example 287, 2-(3,5-Dichlorophenylamino)-4-trifluoromethylprimidine-5-carboxylic acid (pyridin-4-ylmethyl)amide] registered an EC50 under setting [1] of 20 to 300 nM.

In the case of `O=C(NCc1ccc(F)cc1)c1cnc(Nc2cccc(Cl)c2)nc1C(F)(F)F` [Example 270, 2-(3-Chlorophenylamino)-4-trifluoromethylpyrimidine-5-carboxylic acid 4-fluorobenzyl-amide], the EC50 (read-out: EC50 value at the cloned human cannabinoid CB2 receptor) was in the range of 20 to 300 nM.

As for `O=C(NCC1CCOCC1)c1cnc(Nc2ccc(F)c(Cl)c2)nc1C(F)(F)F` [Example 215, 2-(4-Fluoro-3-chloro-phenylamino)-4-trifluoromethyl-pyrimidine-5-carboxylic acid (tetrahydro-pyran-4-ylmethyl)-amide], the Emax was over 50%. In addition, under setting [1], the EC50 was 20 to 300 nM.

Consider `Cc1ccc(Cl)cc1Nc1ncc(C(=O)NCC2CCCC2)c(C(F)(F)F)n1` [Example 183, 2-(5-Chloro-2-methylphenylamino)-4-trifluoromethyl-pyrimidine-5-carboxylic acid (cyclopentylmethyl)-amide], for which the Emax is over 50%. The EC50 under setting [1] was in the range of 20 to 300 nM.

Values taken from patent US20080132505A1 (Glaxo Group Limited, priority 2004, published 2008).
